Assay results taken from US12209111B2, “Targeting P18 for mTOR-related disorders” (WESTERN UNIVERSITY OF HEALTH SCIENCES, priority 2018, dated 2025).
“Also recorded” adds a separate entry of the source. Where a SMILES comes first, the peptide text is derived from it. The star is where a group is joined. Cbz = O=C(OCc1ccccc1)*

Key:
p18 [1] = assay: Cultured hippocampal neurons treated with MG132 or BafA, p18 immunofluorescence; format: cell-based, mouse; settings: 4 h
p18 [2] = assay: Acute hippocampal slices treated with proteasome or lysosome inhibitor, p18 Western blot; format: cell-based, mouse; settings: 30 min
Method: Acute Hippocampal Slice Preparation. Adult male mice (2-4-month-old) were anesthetized with gaseous isoflurane and decapitated. Brains were quickly removed and transferred to oxygenated, ice-cold cutting medium (in mM): 124 NaCl, 26 NaHCO3, 10 glucose, 3 KCl, 1.25 KH2PO4, 5 MgSO4, and 3.4 CaCl2. Hippocampal transversal slices (400 μm-thick) were prepared using a McIlwain-type tissue chopper and transferred to i) an interface recording chamber and exposed to a warm, humidified atmosphere of 95% O2/5% CO2 and continuously perfused with oxygenated and preheated (33±0.5° C.) artificial cerebrospinal fluid (aCSF) (in mM) [110 NaCl, 5 KCl, 2.5 CaCl2, 1.5 MgSO4, 1.24 KH2PO4, 10 D-glucose, 27.4 NaHCO3], perfused at 1.4 ml/min (electrophysiology); or ii) a recovery chamber with a modified aCSF medium, containing (in mM): 124 NaCl, 2.5 KCl, 2.5 CaCl2, 1.5 MgSO4, 1.25 NaH2PO4, 24 NaHCO3, 10 D-glucose, and saturated with 95% O2/5% CO2 for 1 h at 37° C. (biochemical assays).
To determine whether Ube3a-mediated regulation of p18 was proteasome- and/or lysosome-dependent, acute hippocampal slices from WT and AS mice were treated with either a proteasome inhibitor, MG132 (10 μM), or a lysosome inhibitor, the vacuolar H+-ATPase (V-ATPase) inhibitor, bafilomycin A1 (BafA, 100 nM), for 30 min.

mTOR = biological target: T1, mTOR (Mus musculus, UniProt Q9JLN9); assay: MHY1485 treatment of hippocampal slices from p18 siRNA-injected WT mice (LTP, Western blot); format: cell-based; settings: 2 μM, 60 min pre-incubation, to levels of control siRNA-injected WT mice
T1 construct: Pre-incubation of hippocampal slices with MHY1485 (2 μM) for 60 min reestablished TBS-elicited LTP; from tissue; host or cells: acute hippocampal slices from AAV p18 siRNA- or control siRNA-injected WT mice
Method: Electrophysiology. After 1.5 h incubation at 33±0.5° C. in the recording chamber, a single glass pipette filled with 2 M NaCl was used to record field EPSPs (fEPSPs) elicited by stimulation of the Schaffer collateral pathway with twisted nichrome wires (single bare wire diameter, 50 μm) placed in CA1 stratum radiatum. Stimulation pulses were generated using a Multichannel Systems Model STG4002 Stimulator (Reutlingen, Germany). Responses were recorded through a differential amplifier (DAM 50, World Precision Instruments, USA) with a […]. Before each experiment, the input/output (I/O) relation was examined by varying the intensity of the stimulation. Paired-pulse facilitation was tested at 20-300 ms interval. Long-term potentiation (LTP) was induced using theta burst stimulation (10 bursts at 5 Hz, each burst consisting of 4 pulses at 100 Hz, with a pulse duration of 0.2 ms). For LTP and paired-pulse facilitation experiments, the stimulation intensity was regulated to a current which elicited a 40% of maximal response. Data were collected and digitized by Clampex, and the slope of fEPSP was analyzed. […] All data are expressed as means±SEM, and statistical significance of differences between means was calculated with appropriate statistical tests as indicated in figure legends.

mTOR signaling pathway = assay: mTOR signaling in Hela cells treated with p18 short peptides, Western blot; format: cell-based; settings: for mTORC1 activation: Hela cells (FIG. 20C); for Effects: mTOR signaling pathway: Hela cells, TAT or TAT-2031 2 μM for 42 hr, ratios p-mTOR/mTOR, p-S6K1/S6K1, p-S6/S6
Method: (§1) (A) Amino acid sequence of human p18 (SEQ ID NO: 23). G2 is a myristoylation site. C3 and C4 are palmitoylation sites. K20, K31, K60, K103, K104, and K151 (red) are potential ubiquitination sites. Two short peptides around K20/31 and K151 (underlined) were respectively conjugated to the cell membrane transduction domain of HIV-1 Tat protein (TAT-2031 and TAT-151). […] Hela cells were stained with Lysotracker (red) and imaged live. Top panel, representative images of Lysotracker before and 30 min after TAT-2031 treatment are shown. Bottom panel, graph represents the distribution of lysosomes relative to the MTOC, normalized to the distance between the MTOC and the cell periphery. (C) Hela cells were incubated with TAT or TAT-2031 (2 μM) for 42 hr. Representative blots and quantification of p18, p-mTOR/mTOR, p-S6K1/S6K1, and p-S6/S6 in whole cell lysates are shown. N=2 independent experiments.
(§2) Example 9: Short peptides targeting p18 reduced mTOR activation and promoted peripheral positioning of lysosomes in HELA cells. To test whether blocking p18 ubiquitination and interruption of its interaction with other proteins could disrupt mTOR signaling and lysosome localization and function, we designed two small decoy peptides (TAT-2031 and TAT-151) targeting different domains of p18 containing lysine residues (FIG. 20A); these peptides are conjugated to the cell membrane transduction domain of HIV-1 Tat protein. […] SEQ ID NO:19 corresponds to […], residues 20-31 of p18.

Hela cell [3] = assay: Lysosome positioning in Hela cells (Lysotracker live imaging); format: cell-based; settings: for lysosome distribution to the peripheral region of the cell: before and 30 min after treatment (FIG. 20B)
Method: as §1, §2

p18-TRPML1 interaction = p18-TRPML1 interaction (Homo sapiens, UniProt Q6IAA8); assay: p18-TRPML1 interaction
Sequence of p18-TRPML1 interaction (Q9GZU1 whole entry partner): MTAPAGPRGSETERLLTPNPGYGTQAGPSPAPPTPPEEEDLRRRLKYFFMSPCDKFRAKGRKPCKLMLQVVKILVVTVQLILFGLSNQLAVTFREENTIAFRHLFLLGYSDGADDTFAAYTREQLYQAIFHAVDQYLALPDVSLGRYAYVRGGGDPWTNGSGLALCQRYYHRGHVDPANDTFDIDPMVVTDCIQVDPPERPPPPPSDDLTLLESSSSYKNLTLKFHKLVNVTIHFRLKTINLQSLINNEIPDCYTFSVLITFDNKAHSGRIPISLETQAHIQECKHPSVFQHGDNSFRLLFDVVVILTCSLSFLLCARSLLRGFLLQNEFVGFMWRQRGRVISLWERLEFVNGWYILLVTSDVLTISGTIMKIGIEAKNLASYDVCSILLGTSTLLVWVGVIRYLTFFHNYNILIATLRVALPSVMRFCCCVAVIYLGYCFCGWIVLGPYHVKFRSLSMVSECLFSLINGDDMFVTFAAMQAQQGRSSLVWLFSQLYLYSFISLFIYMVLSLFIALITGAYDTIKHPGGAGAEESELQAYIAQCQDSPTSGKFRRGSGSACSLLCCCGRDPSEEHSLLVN
Sequence of p18-TRPML1 interaction (Q6IAA8 whole entry): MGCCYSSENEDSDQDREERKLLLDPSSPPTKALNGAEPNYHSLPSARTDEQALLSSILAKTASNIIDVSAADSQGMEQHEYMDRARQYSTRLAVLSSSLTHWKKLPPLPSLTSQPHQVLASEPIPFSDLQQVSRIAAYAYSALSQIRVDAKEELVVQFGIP
Excerpt: as §2

Hela cell [4] = assay: Migration of Hela cell; format: cell-based

Compound	mTORC1 activation (mTOR signaling pathway)	Effects: mTOR signaling pathway (mTOR signaling pathway)	lysosome distribution to the peripheral region of the cell (Hela cell [3])	Effects: p18-TRPML1 interaction (p18-TRPML1 interaction)	Effects: Migration of Hela cell (Hela cell [4])	further results
CO/C1=C\C(C)=C\[C@@H](C)[C@@H](O)[C@@H](C)C/C(C)=C/C=C/[C@H](OC)[C@@H]([C@@H](C)[C@@H](O)[C@H](C)[C@@]2(O)C[C@@H](O)[C@H](C)[C@@H](C(C)C)O2)OC1=O [BafA, bafilomycin A1]	–	–	–	–	–	p18 intensity (p18 [1]; cultured hippocampal neurons from both WT and AS mice, 100 nM): only slightly increased
CC(C)C[C@@H](C=O)NC(=O)[C@H](CC(C)C)NC(=O)[C@H](CC(C)C)NC(=O)OCc1ccccc1 [MG132] (Cbz-Leu-Leu-Leu-aldehyde)	–	–	–	–	–	p18 levels in AS slices (p18 [2]; acute hippocampal slices from AS mice, MG132 10 μM): marginally; p18 levels in WT slices (p18 [2]; acute hippocampal slices from WT mice, MG132 10 μM or BafA 100 nM): significantly increased; p18 intensity (p18 [1]; cultured hippocampal neurons from WT mice, 10 μM): markedly increased
O=[N+]([O-])c1ccc(Nc2nc(N3CCOCC3)nc(N3CCOCC3)n2)cc1 [MHY1485]	–	–	–	–	–	TBS-elicited LTP (mTOR): reestablished
TAT-151: Short p18 peptide around K151 conjugated to HIV-1 Tat transduction domain: YGRKKRRQRRRKEELVV	not	Little	not	–	–	–
TAT-2031: p18 residues 20-31 (KLLLDPSSPPTK) conjugated to HIV-1 Tat transduction domain: YGRKKRRQRRRKLLLDPSSPPTK	significantly reduced	–	increased; also recorded: shifted the distribution of lysosomes toward the cell periphery	Reduced the	Slightly reduced	lysosome distribution to the peripheral region of the cell (Hela cell [3]; listed as short decoy peptide around K20/31): increased
TAT: Cell membrane transduction domain of HIV-1 Tat protein, YGRKKRRQRRR; control peptide [reference compound]	–	No	–	No	No	Effects: Lysosome positioning in Hela cell (Hela cell [3]): No
